Like-named read-outs stand apart in the source and are kept apart here.
How the values were obtained:
[1] = tested on: hand-foot syndrome induced by anti-tumor agents; test: Prevention of hand-foot syndrome induced by anti-tumor agents in rats, NO-NSAID ointment on hind paws (Table 2-2); type: in vivo, SD rats; conditions: Rattus norvegicus, topical, read-out: Control rate; for responders at 1 %: ointment 1% wt
Procedure, shortened: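 Female SD rats (8 weeks, ~200 g; 10/group) received anti-tumour agents by daily oral gavage in Cremophor EL:ethanol 1:1 diluted ~3× with PBS. NO-NSAID or blank ointment was applied to hind paws once daily, 4 h restrained, then wiped off. Control rate = blank-group minus treated-group hand-foot syndrome incidence.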

HUVEC cells = test: CCK-8 cell viability: alleviation of proliferative toxicity of anti-tumor agents on HUVEC cells (Tables 7-1, 7-2); type: cell-based; conditions: Homo sapiens, 24 h, NO-NSAID 100 μM, percentage increase in viable cells vs anti-tumor agent alone, read-out: Response rate % (average)
Procedure, shortened: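 Viability was measured by CCK-8 after 24-48 h of culture. Cells received anti-tumor agent in DMSO with or without co-added NO-NSAID (dissolved in ethanol or sterile water), and results were corrected against the matching NO-NSAID solvent control.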

For `CC(=O)Oc1ccccc1C(=O)OCc1no[n+]([O-])c1C(N)=O` [Compound A6], the responders at 1 % ([1]; 120 h, Sorafenib 80 mg/kg once a day, Days 5) was 66.7%, the responders at 1 % ([1]; 360 h, Encorafenib 80 mg/kg once a day, Days 15) was 40% and the responders at 1 % ([1]; 432 h, Cabozantinib 50 mg/kg once a day, Days 18) was 40%. The responders at 3 % ([1]; 432 h, Cabozantinib 50 mg/kg once a day, ointment 3% wt, Days 18) was 42.9%, the activation at 100 µM (HUVEC cells; Afatinib (10 μM)) was 45% and the activation at 100 µM (HUVEC cells; Anlotinib (5 μM)) was 50%. The activation at 100 µM (HUVEC cells; Apatinib (10 μM)) was 41%, the activation at 100 µM (HUVEC cells; Axitinib (10 μM)) was 22% and the activation at 100 µM (HUVEC cells; Cabozantinib (5 μM)) was 0%. For the same compound, the activation at 100 µM (HUVEC cells; Dabrafenib (10 μM)) was 21%, the activation at 100 µM (HUVEC cells; Dacomitinib (5 μM)) was 75% and the activation at 100 µM (HUVEC cells; Encorafenib (5 μM)) was 51%. For the same compound, the activation at 100 µM (HUVEC cells; Erdafitinib (10 μM)) was 56%, the activation at 100 µM (HUVEC cells; Everolimus (5 μM)) was 52% and the activation at 100 µM (HUVEC cells; Famitinib (5 μM)) was 66%. It also gave an activation at 100 µM (HUVEC cells; Fruquintinib (10 μM)) of 53%, an activation at 100 µM (HUVEC cells; Gefitinib (10 μM)) of 77% and an activation at 100 µM (HUVEC cells; Infigratinib (15 μM)) of 32%. For the same compound, the activation at 100 µM (HUVEC cells; Lapatinib (5 μM)) was 41%, the activation at 100 µM (HUVEC cells; Lenvatinib (10 μM)) was 23% and the activation at 100 µM (HUVEC cells; Olmutinib (10 μM)) was 28%. The activation at 100 µM (HUVEC cells; Regorafenib (5 μM)) was 66%, the activation at 100 µM (HUVEC cells; Selumetinib (5 μM)) was 64% and the activation at 100 µM (HUVEC cells; Sorafenib (5 μM)) was 24%. It also gave an activation at 100 µM (HUVEC cells; Sunitinib (5 μM)) of 58% and an activation at 100 µM (HUVEC cells; Vemurafenib (5 μM)) of 42%.
